Values joined by “and” are separate entries in the source; they are usually repeats but may differ in a detail not shown here. Identical values can stand only once.
Legend:
Format in all cases: in vivo
[1] = test system: Sweet Potato Whitefly (Bemisia tabaci, BEMITA, SPW); assay: Bioassay 2: sweet potato whitefly, cotton seedling foliar spray; conditions: AI alone
[2] = test system: Fall Armyworm (Spodoptera frugiperda, LAPHFR, FAW); assay: Bioassay 7: fall armyworm, artificial diet, 96 well plate
Procedure: The test solutions were tested against CEW, FAW, BAW, and SBL using the following procedure: an artificial lepidopteran diet (Multispecies Lepidopteran Diet, Southland Products) was distributed in 96 well plate. Twenty μL of test solution was pipetted onto a cell in the bioassay plate. […] Each treatment was replicated 5 times for each species. Approximately five first instar CEW, FAW, BAW, or SBL larva were placed on top of the diet in each cell and was contained with a clear perforated adhesive lid. Test trays were held at approximately 25° C. and ambient relative humidity prior to grading. After five days, the number of cells where all the larvae were dead were recorded as 100% and averaged across all replicates; then the percent control was measured using Abbott's correction formula (W. S. Abbott, J. Econ. Entomol. 18 (1925), pp. 265-267) as follows:
where X=No. of live larvae on solvent check and Y=No. of live larvae on treated diet. In Table 7 the “Expected % Control” was calculated using the method described in Colby S. R., Weeds, 1967, 15, 20-22. Bioassay 8: Western Corn Rootworm (Diabrotica virgifera virgifera, DIABVI, “WCR”)

[3] = test system: Corn Earworm (Helicoverpa zea, HELIZE, CEW); assay: Bioassay 7: corn earworm, artificial diet, 96 well plate
[4] = test system: Sweet Potato Whitefly (Bemisia tabaci, BEMITA, SPW); assay: Bioassay 2: sweet potato whitefly, cotton seedling foliar spray; conditions: F1 alone
[5] = test system: Soybean Looper (Chrysodeixis includens, PSEPIN, SBL); assay: Bioassay 7: soybean looper, artificial diet, 96 well plate; conditions: CL; F1 alone at 0.000005 wt %
[6] = test system: Western Corn Rootworm (Diabrotica virgifera virgifera, DIABVI, WCR); assay: Bioassay 8: western corn rootworm, soil drench, corn root protection; conditions: F1 alone, DIABVI (CRW), 10 mL soil drench, corn nodal root length after 13 days
Procedure: Corn seeds were planted in steam pasteurized soil filled greenhouse pots. Western corn rootworm Diabrotica virgifera virgifera eggs supplied from the Corteva Agriscience in Johnston, IA US, were suspended in a 0.08% agar solution added into the soil. Stock solutions of F1 and active ingredients were prepared at a concentration of either 250 or 500 ugai/10 mL for F1 and active ingredients at the ratios of (F1:AI) 1:0.004; 1:0.01; 1:0.02; 1:0.04; 1:0.08; 1:0.1; 1:0.15; 1:0.2; 1:0.4; 1:2; or 1:4, using a 1:1 solution of acetone:water as a diluent. A soil application of solutions were applied as a 10 mL drench over the soil. Plants were grown in the greenhouse for 13 days at 25 C after which the roots were removed from the soil, washed, and measured to determine the length of the median nodal roots. The measured lengths were compared to the infested and un-infested untreated checks to determine the mean percent control offered to protect the corn roots.

[7] = test system: Beet Armyworm (Spodoptera exigua, LAPHEG, BAW); assay: Bioassay 7: beet armyworm, artificial diet, 96 well plate

## C[C@]1(COC(=O)C2CC2)[C@@H]2C[C@H](O)[C@@]3(C)Oc4cc(-c5cccnc5)oc(=O)c4[C@H](O)[C@@H]3[C@@]2(C)CC[C@@H]1OC(=O)C1CC1 [Afidopyropen]
[1]; Wt % AI 0.00001, 7-9 days
  Average % Control AI: 0.0%

## Cc1ccc(COCC(F)(F)F)c(N2C(=O)CS/C2=N\C(=O)Nc2ccc(-c3ncn(-c4ccc(OC(F)(F)F)cc4)n3)cc2F)c1 [F1]
[2]; F1 alone at 0.0000025 wt %
  Average % Control F1: 0.0%
[2]; F1 alone at 0.000005 wt %
  Average % Control F1: 62.5%
[3]; F1 alone at 0.00002 wt %
  Average % Control F1: 0.0%
[3]; F1 alone at 0.00004 wt %
  Average % Control F1: 62.5% and 50.0%
[4]; F1 0.1, 7-9 days after treatment
  Average % Control F1: 0.0%
[4]; F1 10, 7-9 days after treatment
  Average % Control F1: 37.4% and 50.1%
[5]
  Average % Control F1: 80.0%
[6]; UgActive F1 250
  Average % Control F1: 97.8% and 88.8%
[6]; UgActive F1 500
  Average % Control F1: 83.9%
[7]; F1 alone at 0.0000025 wt %
  Average % Control F1: 12.5%
[7]; F1 alone at 0.00001 wt %
  Average % Control F1: 40.0%

## CN1COCN(Cc2cnc(Cl)s2)/C1=N\[N+](=O)[O-] [Thiamethoxam]
[1]; Wt % AI 0.000001, 7-9 days
  Average % Control AI: 5.8%
[1]; Wt % AI 0.00001, 7-9 days
  Average % Control AI: 35.9%

— patent US20260182575A1, “MOLECULES HAVING PESTICIDAL UTILITY AND INTERMEDIATES AND PROCESSES RELATED THERETO” (CORTEVA AGRISCIENCE LLC, priority 2022, published 2026)
